Assay results reported in the kinase profiling compilation of Christmann-Franck et al. (2016).

Columns and labels:
Assay in all cases: radiometric filter-binding kinase assay
CaMK1 (human) = CaMK1 (human) (UniProt Q14012)
MAPK9 (human) = MAPK9 (human) (UniProt P45984)
[1] = target: STK11 CAB39 STRADA (human) (UniProt Q9Y376+Q7RTN6+Q15831)
PAK4 (human) = PAK4 (human) (UniProt O96013)
MAPK14 (human) = MAPK14 (human) (UniProt Q16539)
IKBKE (human) = IKBKE (human) (UniProt Q14164)
MARK3 (human) = MARK3 (human) (UniProt P27448)
TTK (human) = TTK (human) (UniProt P33981)
MAPKAPK2 (human) = MAPKAPK2 (human) (UniProt P49137)
MAPK3 (human) = MAPK3 (human) (UniProt P27361)
Sequence of MAPK3 (human) (P27361 whole entry, looked up): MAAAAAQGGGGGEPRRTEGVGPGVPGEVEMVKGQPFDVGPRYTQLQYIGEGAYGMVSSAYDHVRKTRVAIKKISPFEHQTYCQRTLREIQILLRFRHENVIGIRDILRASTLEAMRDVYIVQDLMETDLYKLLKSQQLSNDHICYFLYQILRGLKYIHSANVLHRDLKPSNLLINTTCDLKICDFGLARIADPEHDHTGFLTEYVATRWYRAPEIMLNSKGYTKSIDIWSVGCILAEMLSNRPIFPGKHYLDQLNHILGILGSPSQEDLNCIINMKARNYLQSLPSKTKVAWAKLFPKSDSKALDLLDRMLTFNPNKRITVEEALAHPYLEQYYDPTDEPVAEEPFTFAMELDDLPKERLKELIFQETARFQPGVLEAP

IKBKB (human) = IKBKB (human) (UniProt O14920)
Sequence of IKBKB (human) (O14920 whole entry, looked up): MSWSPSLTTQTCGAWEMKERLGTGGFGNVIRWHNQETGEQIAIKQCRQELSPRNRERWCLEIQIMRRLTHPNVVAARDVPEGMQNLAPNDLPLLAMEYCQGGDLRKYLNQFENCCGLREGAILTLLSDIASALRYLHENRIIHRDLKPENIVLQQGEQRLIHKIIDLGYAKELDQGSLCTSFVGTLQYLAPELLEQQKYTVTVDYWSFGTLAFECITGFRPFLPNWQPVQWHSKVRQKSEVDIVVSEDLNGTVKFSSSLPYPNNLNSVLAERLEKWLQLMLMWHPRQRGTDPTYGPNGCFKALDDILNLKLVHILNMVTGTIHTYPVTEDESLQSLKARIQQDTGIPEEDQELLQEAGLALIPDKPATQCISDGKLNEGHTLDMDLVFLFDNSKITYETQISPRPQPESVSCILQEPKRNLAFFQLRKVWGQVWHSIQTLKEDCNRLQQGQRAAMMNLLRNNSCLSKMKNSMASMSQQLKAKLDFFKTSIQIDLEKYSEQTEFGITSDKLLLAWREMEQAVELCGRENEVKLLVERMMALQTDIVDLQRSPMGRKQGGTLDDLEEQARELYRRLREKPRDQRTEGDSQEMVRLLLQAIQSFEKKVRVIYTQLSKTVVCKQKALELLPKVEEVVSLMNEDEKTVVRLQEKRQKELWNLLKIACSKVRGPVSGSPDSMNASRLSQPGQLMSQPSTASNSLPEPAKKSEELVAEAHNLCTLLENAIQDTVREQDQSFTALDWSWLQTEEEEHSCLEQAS

MARK2 (human) = MARK2 (human) (UniProt Q7KZI7)
Sequence of MARK2 (human) (Q7KZI7 whole entry, looked up): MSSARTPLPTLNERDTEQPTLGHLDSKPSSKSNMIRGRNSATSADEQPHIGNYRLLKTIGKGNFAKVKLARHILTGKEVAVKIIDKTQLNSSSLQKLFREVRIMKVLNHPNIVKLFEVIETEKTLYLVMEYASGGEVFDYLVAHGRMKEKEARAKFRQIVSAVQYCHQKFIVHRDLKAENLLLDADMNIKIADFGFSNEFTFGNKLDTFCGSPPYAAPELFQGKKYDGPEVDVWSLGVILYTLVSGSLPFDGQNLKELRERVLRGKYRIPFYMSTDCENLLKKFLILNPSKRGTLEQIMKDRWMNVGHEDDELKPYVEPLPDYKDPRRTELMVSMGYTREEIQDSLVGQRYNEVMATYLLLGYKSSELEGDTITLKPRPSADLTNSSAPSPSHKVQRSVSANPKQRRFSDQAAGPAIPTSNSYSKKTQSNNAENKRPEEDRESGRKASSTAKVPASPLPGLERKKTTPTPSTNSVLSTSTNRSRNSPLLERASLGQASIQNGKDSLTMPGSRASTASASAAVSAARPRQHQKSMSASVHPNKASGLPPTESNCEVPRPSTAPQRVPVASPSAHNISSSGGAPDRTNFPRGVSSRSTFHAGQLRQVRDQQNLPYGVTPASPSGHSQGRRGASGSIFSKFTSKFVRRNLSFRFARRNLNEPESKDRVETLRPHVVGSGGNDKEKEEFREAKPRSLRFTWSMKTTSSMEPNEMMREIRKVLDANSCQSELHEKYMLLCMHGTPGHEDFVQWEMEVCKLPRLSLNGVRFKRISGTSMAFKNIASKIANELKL

DYRK3 (human) = DYRK3 (human) (UniProt O43781)
MKNK2 (human) = MKNK2 (human) (UniProt Q9HBH9)
MAP2K1 (human) = MAP2K1 (human) (UniProt Q02750)
PIM1 (human) = PIM1 (human) (UniProt P11309)
NEK2 (human) = NEK2 (human) (UniProt P51955)
MKNK1 (human) = MKNK1 (human) (UniProt Q9BUB5)
MARK1 (human) = MARK1 (human) (UniProt Q9P0L2)
CHEK2 (human) = CHEK2 (human) (UniProt O96017)
NUAK1 (human) = NUAK1 (human) (UniProt O60285)
TBK1 (human) = TBK1 (human) (UniProt Q9UHD2)
IRAK4 (human) = IRAK4 (human) (UniProt Q9NWZ3)
[2] = test system: AKT1 (human), P31749 [S473D]
Sequence of AKT1 (human), P31749 [S473D] (P31749 whole entry S473D, looked up): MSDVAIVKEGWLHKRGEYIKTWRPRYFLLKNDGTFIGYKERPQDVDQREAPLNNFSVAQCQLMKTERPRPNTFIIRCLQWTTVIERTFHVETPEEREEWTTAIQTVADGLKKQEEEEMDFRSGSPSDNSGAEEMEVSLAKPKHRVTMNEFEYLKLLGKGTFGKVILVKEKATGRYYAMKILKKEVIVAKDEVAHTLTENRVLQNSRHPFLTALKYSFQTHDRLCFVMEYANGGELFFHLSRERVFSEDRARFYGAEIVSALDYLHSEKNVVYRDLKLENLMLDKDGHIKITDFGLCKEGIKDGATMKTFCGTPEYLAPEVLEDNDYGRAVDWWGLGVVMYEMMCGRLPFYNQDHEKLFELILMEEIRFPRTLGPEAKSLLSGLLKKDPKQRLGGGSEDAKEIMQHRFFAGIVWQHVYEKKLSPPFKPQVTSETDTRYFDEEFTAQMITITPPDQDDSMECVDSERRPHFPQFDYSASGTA

MAP3K11 (human) = MAP3K11 (human) (UniProt Q16584)
CSNK1D (human) = CSNK1D (human) (UniProt P48730)
NEK6 (human) = NEK6 (human) (UniProt Q9HC98)
[3] = test system: RPS6KB1 (human), P23443 [T412E]
JAK2 JH1 JH2 (human) = JAK2 JH1 JH2 (human) (UniProt O60674)
Sequence of JAK2 JH1 JH2 (human) (O60674 whole entry, looked up): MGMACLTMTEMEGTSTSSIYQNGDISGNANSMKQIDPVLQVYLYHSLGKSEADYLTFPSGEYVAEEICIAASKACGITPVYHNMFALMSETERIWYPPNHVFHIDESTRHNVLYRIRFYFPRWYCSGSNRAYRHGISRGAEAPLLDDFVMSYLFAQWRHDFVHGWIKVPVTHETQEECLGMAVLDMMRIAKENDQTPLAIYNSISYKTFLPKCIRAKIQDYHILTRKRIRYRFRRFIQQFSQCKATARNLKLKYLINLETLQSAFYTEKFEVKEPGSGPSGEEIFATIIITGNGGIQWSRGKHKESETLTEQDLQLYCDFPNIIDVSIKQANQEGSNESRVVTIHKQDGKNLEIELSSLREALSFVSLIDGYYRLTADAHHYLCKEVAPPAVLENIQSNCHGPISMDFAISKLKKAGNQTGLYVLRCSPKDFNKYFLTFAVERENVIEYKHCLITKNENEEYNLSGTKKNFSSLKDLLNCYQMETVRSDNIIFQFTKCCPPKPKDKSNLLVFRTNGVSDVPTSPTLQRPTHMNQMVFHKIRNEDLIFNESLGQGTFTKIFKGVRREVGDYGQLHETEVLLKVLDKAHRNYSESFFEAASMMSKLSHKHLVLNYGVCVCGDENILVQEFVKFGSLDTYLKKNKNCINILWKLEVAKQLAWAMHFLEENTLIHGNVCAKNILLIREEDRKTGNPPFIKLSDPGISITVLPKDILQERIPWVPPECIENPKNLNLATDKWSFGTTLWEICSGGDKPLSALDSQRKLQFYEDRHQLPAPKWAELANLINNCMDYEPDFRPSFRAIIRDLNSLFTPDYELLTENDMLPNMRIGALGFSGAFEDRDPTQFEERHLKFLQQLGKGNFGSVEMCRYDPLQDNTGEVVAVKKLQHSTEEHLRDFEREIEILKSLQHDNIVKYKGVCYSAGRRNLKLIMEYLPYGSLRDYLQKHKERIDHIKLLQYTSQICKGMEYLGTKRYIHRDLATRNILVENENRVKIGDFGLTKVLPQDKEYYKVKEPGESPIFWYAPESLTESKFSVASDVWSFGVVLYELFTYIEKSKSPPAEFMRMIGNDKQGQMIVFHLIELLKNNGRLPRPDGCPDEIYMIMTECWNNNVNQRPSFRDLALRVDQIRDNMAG

DYRK1A (human) = DYRK1A (human) (UniProt Q13627)
EPHB2 (human) = EPHB2 (human) (UniProt P29323); conditions: compound 1.0 µM
STK3 (human) = STK3 (human) (UniProt Q13188)
Sequence of STK3 (human) (Q13188 whole entry, looked up): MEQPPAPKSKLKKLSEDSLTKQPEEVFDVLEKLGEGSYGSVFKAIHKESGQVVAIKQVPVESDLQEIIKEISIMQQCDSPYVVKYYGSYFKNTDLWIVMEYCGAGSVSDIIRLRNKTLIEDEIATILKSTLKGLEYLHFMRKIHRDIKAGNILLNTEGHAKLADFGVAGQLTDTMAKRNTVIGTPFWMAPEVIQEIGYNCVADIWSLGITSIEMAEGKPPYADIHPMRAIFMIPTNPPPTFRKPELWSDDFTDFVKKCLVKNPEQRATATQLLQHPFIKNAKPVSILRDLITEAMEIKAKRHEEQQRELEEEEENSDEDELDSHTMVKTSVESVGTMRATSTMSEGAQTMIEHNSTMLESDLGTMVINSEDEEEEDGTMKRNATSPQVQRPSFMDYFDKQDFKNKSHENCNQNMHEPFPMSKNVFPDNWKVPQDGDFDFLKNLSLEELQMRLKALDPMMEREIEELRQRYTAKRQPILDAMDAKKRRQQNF

MAPK8 (human) = MAPK8 (human) (UniProt P45983)
NTRK1 (human) = NTRK1 (human) (UniProt P04629)
RPS6KA1 KD1 KD2 (human) = RPS6KA1 KD1 KD2 (human) (UniProt Q15418)
Sequence of RPS6KA1 KD1 KD2 (human) (Q15418 whole entry, looked up): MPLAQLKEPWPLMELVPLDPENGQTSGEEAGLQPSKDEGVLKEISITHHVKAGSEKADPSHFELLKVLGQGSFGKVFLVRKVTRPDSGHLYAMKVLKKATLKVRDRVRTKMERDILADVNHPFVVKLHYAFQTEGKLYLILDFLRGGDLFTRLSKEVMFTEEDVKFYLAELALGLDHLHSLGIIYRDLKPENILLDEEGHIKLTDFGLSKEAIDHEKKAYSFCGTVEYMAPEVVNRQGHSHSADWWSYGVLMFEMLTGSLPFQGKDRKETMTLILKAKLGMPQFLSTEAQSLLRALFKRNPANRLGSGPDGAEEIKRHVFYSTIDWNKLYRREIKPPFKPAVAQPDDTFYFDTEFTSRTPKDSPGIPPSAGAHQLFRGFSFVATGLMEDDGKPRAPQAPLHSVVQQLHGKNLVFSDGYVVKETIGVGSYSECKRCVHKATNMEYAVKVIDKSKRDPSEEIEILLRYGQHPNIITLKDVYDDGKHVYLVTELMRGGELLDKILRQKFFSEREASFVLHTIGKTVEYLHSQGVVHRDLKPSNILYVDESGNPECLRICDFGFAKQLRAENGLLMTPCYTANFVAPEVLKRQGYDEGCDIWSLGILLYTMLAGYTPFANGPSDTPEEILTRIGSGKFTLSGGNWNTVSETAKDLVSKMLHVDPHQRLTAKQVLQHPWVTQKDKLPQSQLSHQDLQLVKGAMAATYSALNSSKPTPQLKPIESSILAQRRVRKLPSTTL

residual activity (CaMK1 (human); compound 1.0 µM): 49%
residual activity (CaMK1 (human); compound 10.0 µM): 19%
residual activity (MAPK9 (human); compound 1.0 µM): 106%
residual activity (MAPK9 (human); compound 10.0 µM): 100%
residual activity ([1]; compound 1.0 µM): 95%
residual activity ([1]; compound 10.0 µM): 55%
residual activity (PAK4 (human); compound 1.0 µM): 50%
residual activity (PAK4 (human); compound 10.0 µM): 38%
residual activity (MAPK14 (human); compound 1.0 µM): 100%
residual activity (MAPK14 (human); compound 10.0 µM): 119%
residual activity (IKBKE (human); compound 1.0 µM): 69%
residual activity (IKBKE (human); compound 10.0 µM): 21%
residual activity (MARK3 (human); compound 1.0 µM): 51%
residual activity (MARK3 (human); compound 10.0 µM): 6%
residual activity (TTK (human); compound 1.0 µM): 75%
residual activity (TTK (human); compound 10.0 µM): 36%
residual activity (MAPKAPK2 (human); compound 1.0 µM): 94%
residual activity (MAPKAPK2 (human); compound 10.0 µM): 53%
residual activity (MAPK3 (human); compound 1.0 µM): 101%
residual activity (MAPK3 (human); compound 10.0 µM): 54%
residual activity (IKBKB (human); compound 1.0 µM): 100%
residual activity (IKBKB (human); compound 10.0 µM): 16%
residual activity (MARK2 (human); compound 1.0 µM): 86%
residual activity (MARK2 (human); compound 10.0 µM): 26%
residual activity (DYRK3 (human); compound 1.0 µM): 59%
residual activity (DYRK3 (human); compound 10.0 µM): 2%
residual activity (MKNK2 (human); compound 1.0 µM): 63%
residual activity (MKNK2 (human); compound 10.0 µM): 26%
residual activity (MAP2K1 (human); compound 1.0 µM): 84%
residual activity (MAP2K1 (human); compound 10.0 µM): 24%
residual activity (PIM1 (human); compound 1.0 µM): 37%
residual activity (PIM1 (human); compound 10.0 µM): 7%
residual activity (NEK2 (human); compound 1.0 µM): 86%
residual activity (NEK2 (human); compound 10.0 µM): 13%
residual activity (MKNK1 (human); compound 1.0 µM): 61%
residual activity (MKNK1 (human); compound 10.0 µM): 12%
residual activity (MARK1 (human); compound 1.0 µM): 40%
residual activity (MARK1 (human); compound 10.0 µM): 11%
residual activity (CHEK2 (human); compound 1.0 µM): 48%
residual activity (CHEK2 (human); compound 10.0 µM): 5%
residual activity (NUAK1 (human); compound 1.0 µM): 33%
residual activity (NUAK1 (human); compound 10.0 µM): 12%
residual activity (TBK1 (human); compound 1.0 µM): 54%
residual activity (TBK1 (human); compound 10.0 µM): 64%
residual activity (IRAK4 (human); compound 1.0 µM): 80%
residual activity (IRAK4 (human); compound 10.0 µM): 46%
residual activity ([2]; compound 1.0 µM): 106%
residual activity ([2]; compound 10.0 µM): 99%
residual activity (MAP3K11 (human); compound 1.0 µM): 62%
residual activity (MAP3K11 (human); compound 10.0 µM): 16%
residual activity (CSNK1D (human); compound 1.0 µM): 90%
residual activity (CSNK1D (human); compound 10.0 µM): 29%
residual activity (NEK6 (human); compound 1.0 µM): 99%
residual activity (NEK6 (human); compound 10.0 µM): 21%
residual activity ([3]; compound 1.0 µM): 104%
residual activity ([3]; compound 10.0 µM): 14%
residual activity (JAK2 JH1 JH2 (human); compound 1.0 µM): 91%
residual activity (JAK2 JH1 JH2 (human); compound 10.0 µM): 13%
residual activity (DYRK1A (human); compound 1.0 µM): 71%
residual activity (DYRK1A (human); compound 10.0 µM): 3%
residual activity (EPHB2 (human)): 69%
residual activity (STK3 (human); compound 1.0 µM): 58%
residual activity (STK3 (human); compound 10.0 µM): 9%
residual activity (MAPK8 (human); compound 1.0 µM): 93%
residual activity (MAPK8 (human); compound 10.0 µM): 93%
residual activity (NTRK1 (human); compound 1.0 µM): 92%
residual activity (NTRK1 (human); compound 10.0 µM): 29%
residual activity (RPS6KA1 KD1 KD2 (human); compound 1.0 µM): 51%
residual activity (RPS6KA1 KD1 KD2 (human); compound 10.0 µM): 15%
SMILES: O=c1c(O)c(-c2ccc(O)c(O)c2)oc2cc(O)c(O)c(O)c12
